# Measurements from article PMC10820097, “Benzofuran Derivatives from Cortex Mori Radicis and Their Cholinesterase-Inhibitory Activity” (Molecules, 2024).
# “And” between values parts separate entries of the source, which are not always exact repeats. Equal values may be shown once. Read-outs that look alike come from different tables or passages of the source.
# Assays:
# [1] = target: T1, BChE (EC 3.1.1.8) (Equus caballus, UniProt P81908); assay: BChE inhibitory activity assay (modified Ellman's method); assay type: biochemical; settings: for BChE inhibitory effect, in words: up to 100 μM where stated; for IC50: sample concentration that led to 50% enzyme activity loss, mean ± SD, triplicate
# T1 construct: BChE (EC 3.1.1.8, from equine serum); purchased Aladdin Industrial Co., Ltd. (Shanghai, China); host or cells: equine serum (natural source)
# Method: (§1) AChE (EC 3.1.1.7, from electric eel), BChE (EC 3.1.1.8, from equine serum), acetylthiocholine iodide (ATCI), butyrylthiocholine iodide (BTCI), and 5,5′-dithiobis (2-nitrobenzoic acid) (DTNB) were purchased from Aladdin Industrial Co., Ltd. (Shanghai, China).
# (§2) Briefly, AChE and BChE solutions (0.2 units/mL) and ATCI, BTCI, and DTNB solutions (10 mM) were prepared in PBS solution (0.1 M, pH 8.0). The test compound stock solutions (10 mM) were made using methanol, and five different concentrations of each compound were prepared by doubling the dilution with methanol to determine the half-maximal inhibitory concentration (IC50). Firstly, 160 μL of PBS, 2 μL of the test samples, 20 μL of AChE or BChE, and 10 μL of DTNB were mixed and preincubated at 37 °C for 10 min. Thereafter, 10 μL of ATCI or BTCI was added to initiate the reaction, which was incubated at 37 °C for 25 min. The absorbance was measured at 412 nm during incubation. The inhibition rate was calculated using the following formula: IR% = [(Ac − As)]/(Ac − Ab] × 100%, where Ab denotes the absorbance of the blank control (20 μL of water replacing the enzyme solution), Ac represents the absorbance of the control (2 μL of methanol replacing the sample solutions), and As denotes the absorbance of the sample. All of the tests for each sample were performed in triplicate. The IC50 value of each compound was obtained by plotting the inhibition rate against the logarithm of its concentration, and the data were expressed as the mean ± SD.
# [2] = tested on: BChE; set-up: method as in PMID 29786669; settings: read-out: BChE IC50 in previous research; cited from earlier work
# [3] = target: T2, AChE (EC 3.1.1.7) (Electrophorus electricus, UniProt O42275); assay: biochemical; assay type: biochemical; settings: for IC50: sample concentration that led to 50% enzyme activity loss, mean ± SD, triplicate
# T2 construct: AChE (EC 3.1.1.7, from electric eel); purchased Aladdin Industrial Co., Ltd. (Shanghai, China); host or cells: electric eel (natural source)
# Method: as §1, §2
# [4] = cis-trans photoisomerization under UV exposure (HPLC detection); assay type: physicochemical; settings: UV exposure at 254 and 365 nm
# Excerpt: The NMR data of 6 (Table 1 and Table 2) were identical to those of nigranol A previously isolated from Morus nigra Linn. The Δ7,8 double bond of nigranol A was formerly determined to be a Z-configuration according to the relatively large coupling constant (12.8 Hz) between H-8 and H-9, which is not applicable and convincing in view of the freely rotating single bond between C-8 and C-9. […] Fortunately, the crystals of compounds 1 and 6 were obtained, and single-crystal X-ray diffraction (XRD) analyses were conducted to determine the configuration of the Δ7,8 double bond. As a result, the isobutene moiety (C-9) and the carbonyl group (C-13), the larger substituent groups for C-8 and C-7, respectively, existed in cis- and trans-conformations in compounds 1 and 6, respectively (Figure 3). Therefore, compound 1 was determined to be (Z)-6-hydroxy-3-(3-methylbut-2-en-1-ylidene)benzofuran-2(3H)-one and named albaphenol A, while nigranol A (6) was revised as (E)-6-hydroxy-3-(3-methylbut-2-en-1-ylidene)benzofuran-2(3H)-one. […] Due to the cis–trans tautomerism also taking place slowly under natural light, the samples were stored in a 4 °C refrigerator under dark conditions, and the crystallizations of the two compounds were induced in nearly saturated methanol solution under the same conditions.
# [5] = tested on: BChE; set-up: method as in PMID 31459768; settings: cited from earlier work
# [6] = target: T1, BChE (EC 3.1.1.8); assay: Kinetic study of BChE inhibition (Lineweaver–Burk and secondary plots); assay type: biochemical; settings: for BChE Inhibition Type: Lineweaver–Burk plots; for BChE αKi: from secondary plot of 1/Vmax vs [I], binding to ES complex; for BChE α (thermodynamic cooperativity factor): αKi/Ki
# Method: To determine the inhibition modes of the compounds, enzyme kinetic studies were carried out for the structurally representative inhibitors, namely, compounds 1, 8, 9, 11, and 14. […] For this type of interaction, inhibitors can bind to the free enzyme (E) and the enzyme–substrate (ES) complex, forming EI and ESI complexes, respectively. The Ki and αKi values for the inhibitors were determined from the secondary plots of the slope (Km/Vm) and the vertical intercept (1/Vm) from the Lineweaver–Burk plot as functions of the inhibitor concentration, respectively (Figure S2 in Supplementary Materials), and the thermodynamic cooperativity factor α differed among the five structurally diverse inhibitors (Table 3).
# as §1
# Using the same protocol as the inhibitory activity assay, kinetic studies of BChE inhibition were performed with a series of concentrations of substrate BTCI, namely, 0.1, 0.2, 0.3, 0.4, and 0.5 mM or 0.2, 0.4, 0.5, 0.6, and 0.7 mM. Three concentrations of each test compound were selected according to the IC50 value. The detection of absorbance was conducted during the enzymatic reaction at 10 min, 20 min, and 25 min. The change in absorbance per minute was referred to as the velocity of the enzyme-promoting reaction. The Lineweaver–Burk plots (double-reciprocal plots) were created by plotting the reciprocal of velocity (1/V) against the reciprocal of BTCI concentration (1/[BTCI]) for a compound at three concentrations, and the kinetic parameters, Michaelis constant (Km), and maximum velocity (Vmax) obtained therefrom were used to check the inhibition modes. The value of the inhibitor constant Ki was determined by referencing the secondary plot of the slope of the double-reciprocal lines (from the Lineweaver–Burk plot) as a function of [I], and the x intercept was equal to −Ki. Another secondary plot was fitted by 1/Vmax as a function of the inhibitor concentration [I], and the value of −αKi can be determined to be the x intercept therefrom.
# [7] = from secondary plot of slope of Lineweaver–Burk lines vs [I], binding to free enzyme, read-out: BChE Ki
# T2 sequence (O42275 24-633): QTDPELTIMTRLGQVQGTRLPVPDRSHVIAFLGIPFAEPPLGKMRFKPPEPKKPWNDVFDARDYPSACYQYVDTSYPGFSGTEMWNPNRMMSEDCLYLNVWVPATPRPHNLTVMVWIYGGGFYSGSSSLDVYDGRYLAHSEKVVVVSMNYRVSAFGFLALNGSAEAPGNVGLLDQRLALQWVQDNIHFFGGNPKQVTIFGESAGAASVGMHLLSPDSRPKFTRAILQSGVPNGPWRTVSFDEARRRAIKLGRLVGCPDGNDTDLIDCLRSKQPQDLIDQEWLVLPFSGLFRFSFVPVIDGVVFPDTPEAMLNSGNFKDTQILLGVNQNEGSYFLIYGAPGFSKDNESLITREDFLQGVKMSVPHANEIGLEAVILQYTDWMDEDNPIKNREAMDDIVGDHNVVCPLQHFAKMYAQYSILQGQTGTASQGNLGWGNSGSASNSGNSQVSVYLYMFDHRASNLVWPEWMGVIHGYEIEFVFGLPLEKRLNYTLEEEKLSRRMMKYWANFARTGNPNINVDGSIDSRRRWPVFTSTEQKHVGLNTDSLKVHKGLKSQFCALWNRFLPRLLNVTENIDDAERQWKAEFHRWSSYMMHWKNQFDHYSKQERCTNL
# T1 sequence (P81908 whole entry): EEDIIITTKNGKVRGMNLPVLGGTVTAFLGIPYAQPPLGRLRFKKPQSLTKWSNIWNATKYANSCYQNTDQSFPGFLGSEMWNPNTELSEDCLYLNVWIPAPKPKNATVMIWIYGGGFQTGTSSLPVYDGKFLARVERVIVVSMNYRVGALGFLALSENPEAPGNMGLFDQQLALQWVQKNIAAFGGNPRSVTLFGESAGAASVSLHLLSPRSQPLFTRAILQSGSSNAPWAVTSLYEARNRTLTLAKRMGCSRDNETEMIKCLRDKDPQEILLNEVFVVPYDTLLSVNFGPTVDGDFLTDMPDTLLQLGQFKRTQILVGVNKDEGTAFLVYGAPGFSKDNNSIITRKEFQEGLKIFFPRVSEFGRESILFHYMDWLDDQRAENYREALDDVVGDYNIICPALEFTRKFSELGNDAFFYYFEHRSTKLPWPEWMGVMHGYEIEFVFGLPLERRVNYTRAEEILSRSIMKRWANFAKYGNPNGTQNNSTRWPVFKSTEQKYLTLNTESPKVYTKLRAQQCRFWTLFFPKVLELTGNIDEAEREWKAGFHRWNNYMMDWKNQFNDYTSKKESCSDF
structure (smiles),measurement,setting,value
"CC1(C)Oc2cc3oc(-c4cc(O)cc(O)c4)cc3cc2C[C@H]1O [Compound 13, moracin P]","BChE inhibitory effect, in words",[1],neither moracin O (12) nor P (13) exhibited a significant inhibitory effect
same,IC50,[2],38 µM
"CC(C)=C/C=C1/C(=O)Oc2cc(O)ccc21 [Compound 6, (E)-6-hydroxy-3-(3-methylbut-2-en-1-ylidene)benzofuran-2(3H)-one]",IC50,[3],> 100 µM
same,"AChE inhibitory effect, in words",[3]; up to 100 μM where stated,no obvious inhibition
same,IC50,[1]; read-out: IC50 BChE,94.8 µM and > 100 µM
same,"BChE inhibitory effect, in words",[1],no obvious inhibition
same,"time to almost reach equilibrium of cis-trans photoisomerization (1 and 6, ratio approximately 1:1)",[4],≤ 30 min
"CC(C)(O)CCC(=O)c1ccc(O)cc1O [Compound 5, 1-(2,4-dihydroxyphenyl)-4-hydroxy-4-methylpentan-1-one]",IC50,[3],> 100 µM
same,IC50,[1]; read-out: IC50 BChE,> 100 µM
"CC(C)=CCc1c(O)cc(O)c(CC=C(C)C)c1-c1cc2ccc(O)cc2o1 [Compound 15, mulberrofuran V]",IC50,[3],> 100 µM
same,IC50,[1]; read-out: IC50 BChE,27.1 ± 6.8 µM
CC(C)=CCC/C(C)=C/Cc1c(O)ccc2cc(-c3cc(O)cc(O)c3CC=C(C)C)oc12 [mulberrofuran D],IC50,[5],6.12 µM
"CC(C)=C/C=C1\C(=O)Oc2cc(O)ccc21 [Compound 1, (Z)-6-hydroxy-3-(3-methylbut-2-en-1-ylidene)benzofuran-2(3H)-one]",IC50,[3],> 100 µM
same,IC50,[1]; read-out: IC50 BChE,45.5 ± 5.9 µM
same,BChE Inhibition Type,[6],Mixed uncompetitive
same,BChE αKi,[6],43.0 µM
same,Ki,[6]; [7],93.4 µM
same,BChE α (thermodynamic cooperativity factor),[6],0.46
same,"time to almost reach equilibrium of cis-trans photoisomerization (1 and 6, ratio approximately 1:1)",[4],≤ 30 min
"CC(C)=CCc1cc2cc(-c3cc(O)cc(O)c3)oc2cc1O [Compound 11, moracin N]",IC50,[3],40.5 ± 4.7 µM
same,IC50,[1]; read-out: IC50 BChE,13.5 ± 1.6 µM
same,BChE Inhibition Type,[6],Noncompetitive
same,BChE αKi,[6],13.3 µM
same,Ki,[6]; [7],12.7 µM
same,BChE α (thermodynamic cooperativity factor),[6],1.05
"Oc1cc(O)cc(-c2cc3ccc(O)cc3o2)c1 [Compound 10, moracin M]",IC50,[3],> 100 µM
same,IC50,[1]; read-out: IC50 BChE,> 100 µM
same,"BChE inhibitory effect, in words",[1],did not inhibit
same,IC50,[2],38.1 µM
"CC(C)(O)C1Cc2cc3cc(-c4cc(O)cc(O)c4)oc3cc2O1 (centres unmarked) [Compound 12, moracin O]","BChE inhibitory effect, in words",[1],neither moracin O (12) nor P (13) exhibited a significant inhibitory effect
same,IC50,[2],28.2 µM
"COC(=O)/C(=C/C=C(C)C)c1ccc(O)cc1O [Compound 2, albaphenol B]",IC50,[3],> 100 µM
same,IC50,[1]; read-out: IC50 BChE,> 100 µM
"COC(=O)C(CC=C(C)C)c1ccc(O)cc1O (centres unmarked) [Compound 3, methyl 2-(2,4-dihydroxyphenyl)-5-methylhex-4-enoate]",IC50,[3],> 100 µM
same,IC50,[1]; read-out: IC50 BChE,> 100 µM
"CC(C)=CCc1c(O)cc2c(c1-c1cc3ccc(O)cc3o1)C=CC(C)(C)O2 [Compound 14, cathafuran C]",IC50,[3],> 100 µM
same,selective index (AChE IC50/BChE IC50 ratio),[1],over 38
same,IC50,[1]; read-out: IC50 BChE,2.6 ± 0.2 µM
same,BChE Inhibition Type,[6],Competitive
same,BChE αKi,[6],22.7 µM
same,Ki,[6]; [7],1.7 µM
same,BChE α (thermodynamic cooperativity factor),[6],13.35
"COc1cc(O)cc(-c2cc3cc(O)c(OC)cc3o2)c1 [Compound 7, moracin B]",IC50,[3],> 100 µM
same,IC50,[1]; read-out: IC50 BChE,> 100 µM
same,"BChE inhibitory effect, in words",[1],did not inhibit
"CC(C)=CCc1c(O)cc(-c2cc3ccc(O)cc3o2)cc1O [Compound 8, moracin C]",IC50,[3],> 100 µM
same,IC50,[1]; read-out: IC50 BChE,27.9 ± 3.5 µM
same,BChE Inhibition Type,[6],Mixed competitive
same,BChE αKi,[6],71.1 µM
same,Ki,[6]; [7],12.8 µM
same,BChE α (thermodynamic cooperativity factor),[6],5.55
CC(C)=CCCC1(C)C=Cc2c(ccc3cc(-c4cc(O)cc(O)c4CC=C(C)C)oc23)O1 (centres unmarked) [mulberrofuran D2],IC50,[5],1.51 µM
"COc1cc(O)c(CC=C(C)C)c(-c2cc3ccc(O)cc3o2)c1CC=C(C)C [Compound 16, mulberrofuran N]",IC50,[3],> 100 µM
same,IC50,[1]; read-out: IC50 BChE,32.8 ± 4.2 µM
"CCOC(=O)C(CC=C(C)C)c1ccc(O)cc1O (centres unmarked) [Compound 4, ethyl 2-(2,4-dihydroxyphenyl)-5-methylhex-4-enoate]",IC50,[3],> 100 µM
same,IC50,[1]; read-out: IC50 BChE,61 ± 3.4 µM
"CC1(C)C=Cc2c(O)cc(-c3cc4ccc(O)cc4o3)cc2O1 [Compound 9, moracin D]",IC50,[3],81.2 ± 3.9 µM
same,IC50,[1]; IC50 BChE,9.5 ± 3.2 µM
same,Ki,[6],5.7 µM
same,BChE Inhibition Type,[6],Mixed competitive
same,BChE αKi,[6],25.2 µM
same,BChE α (thermodynamic cooperativity factor),[6],4.42
